Assay results reported in ChEMBL document CHEMBL4819081 (Eur J Med Chem, 2021).

Experiments:
[1] = tested on: MDA-MB-231; test: Induction of cell cycle arrest in human MDA-MB-231 cells assessed as accumulation at G1 phase at 0.75 uM after 12 hrs by propidium iodide staining-based flow cytometric analysis (reference value: 53.11%); type: functional
[2] = tested on: NCI-H1299; test: Potency index, ratio of IC50 for Palbociclib to IC50 for test compound for antiproliferative activity against human H1299 cells assessed as reduction in cell viability after 72 hrs by MTT assay; type: functional
[3] = tested on: MDA-MB-231; test: Antitumor activity against human MDA-MB-231 cells xenografted in po dosed BALB/c mouse assessed as reduction in tumor volume measured every 3 days for 21 days; type: functional, organism-based; conditions: dose 40-80 mg/kg, time 21.0 day
[4] = biological target: CDK6/cyclin D3 (Homo sapiens, UniProt Q00534); test: Inhibition of CDK6/Cyclin D3 (unknown origin) by mobility shift assay; type: protein-complex assay
[5] = Inhibition of clone formation in human MDA-MB-231 cells at 0.625 uM after 14 days by crystal violet staining based-colony formation assay; type: functional; conditions: MDA-MB-231, 336 h, time 14 day
[6] = tested on: MDA-MB-231; test: Antitumor activity against human MDA-MB-231 cells xenografted in BALB/c mouse assessed as tumor growth inhibition at 80 mg/kg, po measured every 3 days for 21 days; type: functional; conditions: MDA-MB-231, po, 504 h, time 21 day, read-out: TGI
[7] = tested on: MDA-MB-231; test: Induction of apoptosis in human MDA-MB-231 cells assessed as late apoptotic cells at 5 uM after 24 hrs by Annexin-V/PI-staining based flow cytometry (reference value: 3.02%); type: functional
[8] = tested on: MDA-MB-231; test: Induction of apoptosis in human MDA-MB-231 cells assessed as late apoptotic cells at 1.25 uM after 24 hrs by Annexin-V/PI-staining based flow cytometry (reference value: 3.02%); type: functional
[9] = tested on: MDA-MB-231; test: Induction of apoptosis in human MDA-MB-231 cells assessed as late apoptotic cells at 10 uM after 24 hrs by Annexin-V/PI-staining based flow cytometry (reference value: 3.02%); type: functional
[10] = tested on: MCF7; test: Potency index, ratio of IC50 for Palbociclib to IC50 for test compound for antiproliferative activity against human MCF7 cells assessed as reduction in cell viability after 72 hrs by MTT assay; type: functional
[11] = biological target: Cyclin-dependent kinase 4/cyclin D1 (Homo sapiens) (UniProt P11802+P24385); test: Inhibition of CDK4/Cyclin D1 (unknown origin) at 20 nM using ATP by mobility shift assay; type: protein-complex assay
[12] = tested on: MDA-MB-231; test: Antitumor activity against human MDA-MB-231 cells xenografted in po dosed BALB/c mouse assessed as reduction in tumor weight measured every 3 days for 21 days; type: functional, organism-based; conditions: dose 40-80 mg/kg, time […]
[13] = Toxicity in BALB/c mouse xenografted with human MDA-MB-231 cells assessed as body weight change at 40 to 80 mg/kg, po measured every 3 days for 21 days; type: organism-based; conditions: in vivo, 72 h, dose 40-80 mg/kg, time 3 day
[14] = biological target: CDK6/cyclin D3 (Homo sapiens) (UniProt P30281+Q00534); test: Inhibition of CDK6/Cyclin D3 (unknown origin) at 20 nM using ATP by mobility shift assay; type: protein-complex assay
[15] = tested on: MCF7; test: Antiproliferative activity against human MCF7 cells assessed as reduction in cell viability after 72 hrs by MTT assay; type: functional, cell-based; conditions: MCF7, 72 h

Sequence of CDK6/cyclin D3 (P30281 whole entry): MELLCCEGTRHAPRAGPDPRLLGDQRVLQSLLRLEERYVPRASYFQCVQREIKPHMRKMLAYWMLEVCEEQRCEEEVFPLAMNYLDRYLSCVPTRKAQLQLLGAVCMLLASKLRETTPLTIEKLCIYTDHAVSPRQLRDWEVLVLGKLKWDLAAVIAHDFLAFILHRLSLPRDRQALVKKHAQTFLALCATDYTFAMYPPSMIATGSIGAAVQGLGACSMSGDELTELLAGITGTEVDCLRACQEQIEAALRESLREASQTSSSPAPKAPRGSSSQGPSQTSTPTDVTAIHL
Sequence of CDK6/cyclin D3 (Q00534 whole entry): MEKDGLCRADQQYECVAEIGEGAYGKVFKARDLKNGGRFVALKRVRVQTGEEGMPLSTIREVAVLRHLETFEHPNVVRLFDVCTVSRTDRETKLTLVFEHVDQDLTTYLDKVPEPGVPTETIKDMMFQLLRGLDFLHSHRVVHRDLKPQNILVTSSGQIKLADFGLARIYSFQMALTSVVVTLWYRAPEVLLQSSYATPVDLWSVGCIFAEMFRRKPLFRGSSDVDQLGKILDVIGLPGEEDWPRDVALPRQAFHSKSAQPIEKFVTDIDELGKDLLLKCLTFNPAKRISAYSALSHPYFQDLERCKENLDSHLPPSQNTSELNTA

CC(=O)c1c(C)c2cnc(Nc3ccc(N4CCN(C(=O)CCl)CC4)cn3)nc2n(C2CCCC2)c1=O
Activity [1]: 71%
Ratio IC50 [2]: 4
inhibition [3]: Dose-Dependent Effect
IC50 [4]: 14 nM
inhibition at 0.625 µM [5]: 100%
inhibition in vivo at 80 mg/kg [6]: 105%
Activity [7]: 27.32%
Activity [8]: 9.72%
Activity [9]: 14.54%
Ratio IC50 [10]: 40
inhibition [11]: 61.7%
inhibition [12]: Dose-Dependent Effect
Activity [13]: Non-Toxic
inhibition [14]: 81.6%
IC50 [15]: 380 nM
